In patent US20240300932A1, “N-PHENYLIMINE DERIVATIVE AND PREPARATION METHOD AND USE THEREOF” (Guizhou University, priority 2023, published 2024):

Columns and labels:
Experiment in all cases: Post-emergence herbicidal activity test (stem and leaf spray, pot culture)
Type in all cases: in vivo
Settings in all cases: 3 weeks after spraying
Abutilon theophrasti = test system: Abutilon theophrasti
Procedure, shortened: (§1)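 Activity is given as a 0–5 grade of fresh weight growth control, scored three weeks after a single stem-and-leaf spray. Weeds in farmland loam were treated at the 2- to 3-leaf stage at 10, 5 and 2.5 g/mu, with methyl oleate added as synergist.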

Amaranthus retroflexus = test system: Amaranthus retroflexus
Procedure, shortened: as §1

Echinochloa crusgalli = test system: Echinochloa crusgalli
Procedure, shortened: as §1

Portulaca oleracea = test system: Portulaca oleracea
Procedure, shortened: as §1

Setaria viridis = test system: Setaria viridis
Procedure, shortened: as §1

Trifoliumre pensL. = test system: Trifoliumre pensL.
Procedure, shortened: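 Rates of 10, 5 and 2.5 g/mu were applied in a single spray-tower treatment to 2–3-leaf plants, thinned to 10 per pot. Formulation: acetone solution, Tween 80, 1.5 L/ha methyl oleate synergist. Weed response assessed after 3 further greenhouse weeks; mean of three experiments.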

## O=C1C2=C(CCCC2)C(=O)N1c1cc(OCc2nc(-c3ccc(Br)cc3Br)no2)c(Cl)cc1F [Compound A11]
Abutilon theophrasti; dosage 2.5 g/mu
  Post-emergence herbicidal activity, A. theophrasti (grade): 5 (Grade 5: the growth control rate is greater than or equal to 85%)
Abutilon theophrasti; dosage 5 g/mu
  Post-emergence herbicidal activity, A. theophrasti (grade): 5 (Grade 5: the growth control rate is greater than or equal to 85%)
Abutilon theophrasti; dosage 10 g/mu
  Post-emergence herbicidal activity, A. theophrasti (grade): 5 (Grade 5: the growth control rate is greater than or equal to 85%)
Amaranthus retroflexus; dosage 2.5 g/mu
  Post-emergence herbicidal activity, A. retroflexus (grade): 5 (Grade 5: the growth control rate is greater than or equal to 85%)
Amaranthus retroflexus; dosage 5 g/mu
  Post-emergence herbicidal activity, A. retroflexus (grade): 5 (Grade 5: the growth control rate is greater than or equal to 85%)
Amaranthus retroflexus; dosage 10 g/mu
  Post-emergence herbicidal activity, A. retroflexus (grade): 5 (Grade 5: the growth control rate is greater than or equal to 85%)
Echinochloa crusgalli; dosage 2.5 g/mu
  Post-emergence herbicidal activity, E. crusgalli (grade): 1 (Grade 1: the growth control rate is greater than or equal to 5% and less than 20%)
Echinochloa crusgalli; dosage 5 g/mu
  Post-emergence herbicidal activity, E. crusgalli (grade): 2 (Grade 2: the growth control rate is greater than or equal to 20% and less than 40%)
Echinochloa crusgalli; dosage 10 g/mu
  Post-emergence herbicidal activity, E. crusgalli (grade): 3 (Grade 3: the growth control rate is greater than or equal to 40% and less than 60%)
Portulaca oleracea; dosage 2.5 g/mu
  Post-emergence herbicidal activity, P. oleracea (grade): 4 (Grade 4: the growth control rate is greater than or equal to 60% and less than 85%)
Portulaca oleracea; dosage 5 g/mu
  Post-emergence herbicidal activity, P. oleracea (grade): 5 (Grade 5: the growth control rate is greater than or equal to 85%)
Portulaca oleracea; dosage 10 g/mu
  Post-emergence herbicidal activity, P. oleracea (grade): 5 (Grade 5: the growth control rate is greater than or equal to 85%)
Setaria viridis; dosage 2.5 g/mu
  Post-emergence herbicidal activity, S. viridis (grade): 2 (Grade 2: the growth control rate is greater than or equal to 20% and less than 40%)
Setaria viridis; dosage 5 g/mu
  Post-emergence herbicidal activity, S. viridis (grade): 3 (Grade 3: the growth control rate is greater than or equal to 40% and less than 60%)
Setaria viridis; dosage 10 g/mu
  Post-emergence herbicidal activity, S. viridis (grade): 4 (Grade 4: the growth control rate is greater than or equal to 60% and less than 85%)
Trifoliumre pensL.; dosage 2.5 g/mu
  Post-emergence herbicidal activity, Trifoliumre pensL. (grade): 4 (Grade 4: the growth control rate is greater than or equal to 60% and less than 85%)
Trifoliumre pensL.; dosage 5 g/mu
  Post-emergence herbicidal activity, Trifoliumre pensL. (grade): 5 (Grade 5: the growth control rate is greater than or equal to 85%)
Trifoliumre pensL.; dosage 10 g/mu
  Post-emergence herbicidal activity, Trifoliumre pensL. (grade): 5 (Grade 5: the growth control rate is greater than or equal to 85%)
